14 compounds from patent publication US20240148821A1, “PHARMACEUTICAL USE OF CYCLIC PEPTIDE COMPOUND” (CHUGAI SEIYAKU KABUSHIKI KAISHA, priority 2021, published 2024) can be followed below.

Molecules are shown by their SMILES. Numbered stars: 1 amine (or outer) side, 2 acyl side, 3 side chain; on linkers, the order of the positions; unused ones are H or OH. Bridge positions count the residues as written; N and C are the ends. Square brackets hold non-standard residues; d marks the D form. Peptide text beside a SMILES is read from it. * marks the point of attachment. hPhe(3,5-F2-4-CF3) = N[C@@H](CCc1cc(F)c(C(F)(F)F)c(F)c1)C(=O)O; X45 = CN([C@@H](CC=C1CN(C(=O)OC(C)(C)C)C1)C(=O)[*:2])[*:1]; hPhe(3-Cl-4-CF3) = N[C@@H](CCc1ccc(C(F)(F)F)c(Cl)c1)C(=O)O; hPhe(3-F,4-CF3) = N[C@@H](CCc1ccc(C(F)(F)F)c(F)c1)C(=O)O; NEtPhe(4-CF3) = CCN[C@@H](Cc1ccc(C(F)(F)F)cc1)C(=O)O; X8 = CC(C)Oc1cc(CC[C@H](N[*:1])C(=O)[*:2])cc(Cl)c1Cl; NMePhe(4-CF3) = CN[C@@H](Cc1ccc(C(F)(F)F)cc1)C(=O)O; hPhe(4-CF3) = N[C@@H](CCc1ccc(C(F)(F)F)cc1)C(=O)O; 3Oxa8azabicyclo(3.2.1)octane = C1CC2COCC1N2*; NMePhe(4-Cl) = CN[C@@H](Cc1ccc(Cl)cc1)C(=O)O; NMePhe(4-Me) = CN[C@@H](Cc1ccc(C)cc1)C(=O)O; NMedβ3hAla = C[C@H](CC(=O)[*:2])N(C)[*:1]; NMeGly(cPent) = CN[C@H](C(=O)O)C1CCCC1; Pro(4,4-F2) = O=C(O)[C@@H]1CC(F)(F)CN1; X136 = O=C(CN(CCN1CCNCC1)[*:1])[*:2]; NMeGly(cBu) = CN[C@H](C(=O)O)C1CCC1; NMeCha = CN[C@@H](CC1CCCCC1)C(=O)O; NMeChg = CN[C@H](C(=O)O)C1CCCCC1; NMeF = CN[C@@H](Cc1ccccc1)C(=O)O; NMeI = CC[C@H](C)[C@H](NC)C(=O)O; NMeE = CN[C@@H](CCC(=O)O)C(=O)O; NMeD = CN[C@@H](CC(=O)O)C(=O)O; dNMeD = CN[C@H](CC(=O)O)C(=O)O; NMeL = CN[C@@H](CC(C)C)C(=O)O; NMeV = CN[C@H](C(=O)O)C(C)C; NMeS = CN[C@@H](CO)C(=O)O; Morpholide = C1CN(*)CCO1; NMeA = CN[C@@H](C)C(=O)O; Piperidide = C1CCN(*)CC1; Pyrrolidide = C1CCN(*)C1; Ac5c = NC1(C(=O)O)CCCC1; Aze = O=C(O)[C@@H]1CCN1; Ac4c = NC1(C(=O)O)CCC1; Sar = CNCC(=O)O; Propyl = CCC*

The first assay has as its target protein-protein interaction between Kras and SOS1 (biotin-tagged human Kras loaded with GDP, His-tagged human SOS1) (Homo sapiens (Human), UniProt P01116, G12D). The experiment in a line: Protein-protein interaction inhibition between Kras and SOS1 (KrasG12D-SOS PPI) using AlphaScreen.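 Also: kras produced in E. coli, Ni-coupled donor beads and streptavidin acceptor beads, excitation 680 nm with emission detected at 520–620 nm via singlet oxygen transfer.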 Format: biochemical.
Conditions: not given
A general note: In Alpha technology, singlet oxygen from a donor bead excites a nearby acceptor bead.
The term IC50 denotes the concentration that gives 50% inhibition. Take `CC[C@H](C)[C@@H]1NC(=O)[C@H](CC(C)C)N(C)C(=O)C[C@@H](C(=O)N(C)C)N(C)C(=O)[C@H](C2CCCC2)N(C)C(=O)C2(CCCC2)NC(=O)[C@H](CC(=O)N2CCCCC2)N(C)C(=O)[C@H](CCc2ccc(C(F)(F)F)c(Cl)c2)NC(=O)CN(C)C(=O)[C@H](CC2CCCCC2)N(C)C(=O)[C@@H]2CCN2C(=O)[C@H](C)N(C)C1=O` [Compound 2105] ([NMeL]I[NMeA][Aze][NMeCha][Sar][hPhe(3-Cl-4-CF3)][NMeD](Piperidide)[Ac5c][NMeGly(cPent)][NMeD]-NMe2; lactam N-11): half-maximal inhibition (IC50) required 2.6 nM.

Still in this assay, the particulars now being: AlphaScreen; biotin-tagged human Kras loaded with GDP, His-tagged human SOS1; read-out: KRAS G12D-SOS PPI IC50.
As to `CC[C@H](C)[C@@H]1NC(=O)[C@H](C)N(C)C(=O)C[C@@H](C)N(C)C(=O)[C@H](CC(C)C)NC(=O)[C@H](Cc2ccccc2)N(C)C(=O)[C@H](CC(C)C)NC(=O)[C@H](CCc2ccc(C(F)(F)F)cc2)NC(=O)CN(C)C(=O)[C@H](Cc2ccc(Cl)cc2)N(C)C(=O)CN(C)C(=O)CN(C)C1=O` [Compound 214] (cyclo(I[Sar][Sar][NMePhe(4-Cl)][Sar][hPhe(4-CF3)]L[NMeF]L[NMedβ3hAla][NMeA])), the IC50 worked out at 280 nM.
Consider `CC[C@H](C)[C@@H]1NC(=O)[C@H](CC(C)C)N(C)C(=O)C[C@@H](C(=O)N(C)C)N(C)C(=O)[C@H](C2CCCC2)N(C)C(=O)C2(CCCC2)NC(=O)[C@@H]2CCCN2C(=O)[C@H](CCc2ccc(C(F)(F)F)c(F)c2)NC(=O)CN(C)C(=O)[C@H](CC2CCCCC2)N(C)C(=O)[C@@H]2CCN2C(=O)[C@H](C)NC1=O` [Compound 1164] ([NMeL]IA[Aze][NMeCha][Sar][hPhe(3-F,4-CF3)]P[Ac5c][NMeGly(cPent)][NMeD]-NMe2; lactam N-11), for which the IC50 is 1.4 nM.
Still for that read-out and setting: under `CC[C@H](C)[C@@H]1NC(=O)[C@H](CC(C)C)N(C)C(=O)C[C@@H](C)N(C)C(=O)[C@H]([C@@H](C)CC)N(C)C(=O)C2(CCCC2)NC(=O)[C@@H]2CCCN2C(=O)[C@H](CCc2ccc(C(F)(F)F)c(F)c2)NC(=O)CN(C)C(=O)[C@H](C2CCCC2)N(C)C(=O)[C@@H]2CCN2C(=O)[C@H](C)N(C)C1=O` [Compound 909] (cyclo([Ac5c][NMeI][NMedβ3hAla][NMeL]I[NMeA][Aze][NMeGly(cPent)][Sar][hPhe(3-F,4-CF3)]P)) stands 20 nM; under `CC[C@H](C)[C@@H]1NC(=O)[C@H](CC(C)C)N(C)C(=O)C[C@@H](C(=O)N2CCCCC2)N(C)C(=O)[C@H](C2CCCCC2)N(C)C(=O)C2(CCCC2)NC(=O)[C@H](CC=C2CN(C(=O)OC(C)(C)C)C2)N(C)C(=O)[C@H](CCc2ccc(C(F)(F)F)c(Cl)c2)NC(=O)CN(C)C(=O)[C@H](CC2CCCCC2)N(C)C(=O)CN(C)C(=O)CN(C)C1=O` [Compound 2050, tert-butyl 3-[2-[(8S,11S,17S,26S,29S,33S,36S)-11-[2-[3-chloro-4-(trifluoromethyl)phenyl]ethyl]-36-cyclohexyl-17-(cyclohexylmethyl)-29-isobutyl-9,15,18,21,24,30,34,37-octamethyl-26-[(1S)-1-methylpropyl]-7,10,13,16,19,22,25,28,31,35,38-undecaoxo-33-(piperidine-1-carbonyl)-6,9,12,15,18,21,24,27,30,34,37-undecazaspiro[4.33]octatriacontan-8-yl]ethylidene]azetidine-1-carboxylate] ([NMeL]I[Sar][Sar][NMeCha][Sar][hPhe(3-Cl-4-CF3)][X45][Ac5c][NMeChg][NMeD]-Piperidide; lactam N-11), 51 nM.
The same measure, in the same setting: under `CCCOC[C@H]1C(=O)N(C)CC(=O)N[C@@H](CCc2cc(F)c(C(F)(F)F)c(F)c2)C(=O)N2CCC[C@H]2C(=O)NC2(CCCC2)C(=O)N(C)[C@@H](C2CCCC2)C(=O)N(C)[C@H](C(=O)N2C3CCC2COC3)CC(=O)N(C)[C@@H](CC(C)C)C(=O)N[C@@H]([C@@H](C)CC)C(=O)N(C)[C@@H](C)C(=O)N2CC[C@H]2C(=O)N1C` [Compound 1355] ([NMeL]I[NMeA][Aze][NMeS](Propyl)[Sar][hPhe(3,5-F2-4-CF3)]P[Ac5c][NMeGly(cPent)][NMeD]-{3Oxa8azabicyclo(3.2.1)octane}; lactam N-11) stands 3.2 nM; under `CC[C@H](C)[C@@H]1NC(=O)[C@H](CC(C)C)N(C)C(=O)C[C@@H](C(=O)N2CCOCC2)N(C)C(=O)[C@H](C2CCCC2)N(C)C(=O)C2(CCCC2)NC(=O)[C@H](CCC(=O)N2CCOCC2)N(C)C(=O)[C@H](CCc2ccc(C(F)(F)F)c(Cl)c2)NC(=O)CN(C)C(=O)[C@H](CC2CCCCC2)N(C)C(=O)[C@@H]2CCN2C(=O)[C@H](C)N(C)C1=O` [Compound 2107] ([NMeL]I[NMeA][Aze][NMeCha][Sar][hPhe(3-Cl-4-CF3)][NMeE](Morpholide)[Ac5c][NMeGly(cPent)][NMeD]-Morpholide; lactam N-11), 4.8 nM.
Same read-out and setting: as for `CC[C@H](C)[C@@H]1NC(=O)[C@H](CC(C)C)N(C)C(=O)C[C@H](C(=O)N2CCCC2)N(C)C(=O)[C@H](C2CCCC2)N(C)C(=O)C2(CCCC2)NC(=O)[C@@H]2CCCN2C(=O)[C@H](CCc2ccc(C(F)(F)F)c(Cl)c2)NC(=O)CN(C)C(=O)[C@H](Cc2ccc(C(F)(F)F)cc2)N(C)C(=O)[C@@H]2CCN2C(=O)[C@H](C)N(C)C1=O` [Compound 1765] ([NMeL]I[NMeA][Aze][NMePhe(4-CF3)][Sar][hPhe(3-Cl-4-CF3)]P[Ac5c][NMeGly(cPent)][dNMeD]-Pyrrolidide; lactam N-11), the figure is 74 nM; as for `CC[C@H](C)[C@@H]1NC(=O)[C@H](C2CCC2)N(C)C(=O)C[C@@H](C(=O)N2CCCCC2)N(C)C(=O)[C@H]([C@@H](C)CC)N(C)C(=O)C2(CCCC2)NC(=O)[C@@H]2CCCN2C(=O)[C@H](CCc2ccc(C(F)(F)F)c(Cl)c2)NC(=O)CN(C)C(=O)[C@H](CC2CCCCC2)N(C)C(=O)[C@@H]2CCN2C(=O)[C@H](C)N(C)C1=O` [Compound 959] ([NMeGly(cBu)]I[NMeA][Aze][NMeCha][Sar][hPhe(3-Cl-4-CF3)]P[Ac5c][NMeI][NMeD]-Piperidide; lactam N-11), 1.4 nM; as for `CC[C@H](C)[C@@H]1NC(=O)[C@H](CC(C)C)N(C)C(=O)C[C@@H](C)N(C)C(=O)[C@H](C2CCCCC2)N(C)C(=O)C2(CCC2)NC(=O)[C@@H]2CC(F)(F)CN2C(=O)[C@H](CCc2cc(F)c(C(F)(F)F)c(F)c2)NC(=O)CN(C)C(=O)[C@H](Cc2ccc(C(F)(F)F)cc2)N(CC)C(=O)[C@@H]2CCN2C(=O)[C@H](C)NC1=O` [Compound 203] (cyclo(A[Aze][NEtPhe(4-CF3)][Sar][hPhe(3,5-F2-4-CF3)][Pro(4,4-F2)][Ac4c][NMeChg][NMedβ3hAla][NMeL]I)), 31 nM.
With `CC[C@H](C)[C@@H]1NC(=O)[C@H](CC(C)C)N(C)C(=O)C[C@@H](C(=O)N2CCCCC2)N(C)C(=O)[C@H](C2CCCCC2)N(C)C(=O)C2(CCCC2)NC(=O)CN(CCN2CCNCC2)C(=O)[C@H](CCc2ccc(C(F)(F)F)c(Cl)c2)NC(=O)CN(C)C(=O)[C@H](CC2CCCCC2)N(C)C(=O)CN(C)C(=O)CN(C)C1=O` [Compound 2184, (11S,17S,26S,29S,33S,36S)-11-[2-[3-chloro-4-(trifluoromethyl)phenyl]ethyl]-36-cyclohexyl-17-(cyclohexylmethyl)-29-isobutyl-15,18,21,24,30,34,37-heptamethyl-26-[(1S)-1-methylpropyl]-9-(2-piperazin-1-ylethyl)-33-(piperidine-1-carbonyl)-6,9,12,15,18,21,24,27,30,34,37-undecazaspiro[4.33]octatriacontane-7.10,13,16,19,22,25,28,31,35,38-undecone] ([NMeL]I[Sar][Sar][NMeCha][Sar][hPhe(3-Cl-4-CF3)][X136][Ac5c][NMeChg][NMeD]-Piperidide; lactam N-11), the half-maximal inhibitory concentration (IC50) was 7.9 nM.
On to `CC[C@H](C)[C@@H]1NC(=O)[C@H](CC(C)C)N(C)C(=O)C[C@@H](C(=O)N2CCCC2)N(C)C(=O)[C@H](C2CCCCC2)N(C)C(=O)C2(CCCC2)NC(=O)[C@@H]2CCCN2C(=O)[C@H](CCc2ccc(C(F)(F)F)c(Cl)c2)NC(=O)CN(C)C(=O)[C@H](Cc2ccc(C)cc2)N(C)C(=O)[C@@H]2CCN2C(=O)[C@H](C)N(C)C1=O` [Compound 1852] ([NMeL]I[NMeA][Aze][NMePhe(4-Me)][Sar][hPhe(3-Cl-4-CF3)]P[Ac5c][NMeChg][NMeD]-Pyrrolidide; lactam N-11), for which the half-maximal inhibitory concentration (IC50) amounted to 0.94 nM.
The same measure, in the same setting: under `CC[C@H](C)[C@@H]1NC(=O)[C@H](CC(C)C)N(C)C(=O)C[C@@H](C(=O)N2CCOCC2)N(C)C(=O)[C@H](C2CCCC2)N(C)C(=O)C2(CCCC2)NC(=O)[C@H](CCC(=O)N(C)C)N(C)C(=O)[C@H](CCc2ccc(C(F)(F)F)c(Cl)c2)NC(=O)CN(C)C(=O)[C@H](CC2CCCCC2)N(C)C(=O)[C@@H]2CCN2C(=O)[C@H](C)N(C)C1=O` [Compound 2108, 3-[(3S,6S,9S,13S,16S,22S,25S,31S,34S)-25-[2-[3-chloro-4-(trifluoromethyl)phenyl]ethyl]-31-(cyclohexylmethyl)-16-cyclopentyl-9-isobutyl-3,4,10,14,17,23,29,32-octamethyl-6-[(1S)-1-methylpropyl]-13-(morpholine-4-carbonyl)-2,5,8,11,15,18,21,24,27,30,33-undecaoxo-spiro[1,4,7,10,14,17,20,23,26,29,32-undecazabicyclo[32.2.0]hexatriacontane-19,1′-cyclopentane]-22-yl]-N,N-dimethyl-propanamide] ([NMeL]I[NMeA][Aze][NMeCha][Sar][hPhe(3-Cl-4-CF3)][NMeE](NMe2)[Ac5c][NMeGly(cPent)][NMeD]-Morpholide; lactam N-11) stands 7.9 nM; under `CC[C@H](C)[C@@H]1NC(=O)[C@H](C)N(C)C(=O)C[C@@H](C(=O)N2CCCCC2)N(C)C(=O)[C@H](C(C)C)N(C)C(=O)C2(CCCC2)NC(=O)[C@@H]2CCCN2C(=O)[C@H](CCc2cc(Cl)c(Cl)c(OC(C)C)c2)NC(=O)CN(C)C(=O)[C@H](CC2CCCCC2)N(C)C(=O)CN(C)C(=O)CN(C)C1=O` [Compound 2079] ([NMeA]I[Sar][Sar][NMeCha][Sar][X8]P[Ac5c][NMeV][NMeD]-Piperidide; lactam N-11), 17 nM.
